Results published in patent US20090315454A1, “IRIDIUM COMPLEX COMPOUND, ORGANIC ELECTROLUMINESCENT DEVICE OBTAINED BY USING THE SAME, AND USES OF THE DEVICE” (Showa Denko K.K., priority 2006, published 2009).

Assay: Solubility test (visual, complete dissolution at prescribed concentration)
Format: physicochemical
Set-up: key: A: completely dissolved; B: partially undissolved
Details: stirred at room temperature for one hour
Description: The facial and meridional iridium complex compounds (A) synthesized in Example 1 and the facial iridium complex compounds (B) to (D) synthesized in Examples 2 to 4 were tested for solubility. The test was carried out by mixing the iridium complex compound with chloroform or toluene so that a prescribed concentration was obtained, and visually determining if the iridium complex compound was completely dissolved or partially undissolved after the mixture had been stirred at room temperature for one hour.
Iridium complex compounds Ir(ppy)3 (the following Formula (Y)) and Ir(Fppy)3 (the following Formula (X)) were tested for solubility. The test was carried out by mixing the iridium complex compound with chloroform or toluene so that a prescribed concentration was obtained, and visually determining if the iridium complex compound was completely dissolved or partially undissolved after the mixture had been stirred at room temperature for one hour.

Solubility at concentration 0.1 wt % (chloroform) | Solubility at concentration 0.5 wt % (chloroform) | Solubility at concentration 1 wt % (chloroform) | Solubility at concentration 0.1 wt % (toluene) | Solubility at concentration 0.5 wt % (toluene) | Solubility at concentration 1 wt % (toluene) | SMILES
A | A | A | A | B | B | CCCCCc1ccnc(-c2c(F)cc(F)c[c]2[Ir]([c]2cc(F)cc(F)c2-c2cc(CCCCC)ccn2)[c]2cc(F)cc(F)c2-c2cc(CCCCC)ccn2)c1 [Compound (B) facial complex]
A | A | A | A | A | A | CCCc1cc(-c2c(F)cc(F)c[c]2[Ir]([c]2cc(F)cc(F)c2-c2cc(CCC)c(CC)cn2)[c]2cc(F)cc(F)c2-c2cc(CCC)c(CC)cn2)ncc1CC [Compound (D) facial complex]
A | A | A | A | A | A | CC(C)(C)c1ccnc(-c2[c-]cc(F)cc2F)c1.CC(C)(C)c1ccnc(-c2[c-]cc(F)cc2F)c1.CC(C)(C)c1ccnc(-c2[c-]cc(F)cc2F)c1.[Ir+3] [Compound (A) meridional complex]
A | A | A | A | A | B | CCCCC(CCCC)c1ccnc(-c2c(F)cc(F)c[c]2[Ir]([c]2cc(F)cc(F)c2-c2cc(C(CCCC)CCCC)ccn2)[c]2cc(F)cc(F)c2-c2cc(C(CCCC)CCCC)ccn2)c1 [Compound (C) facial complex]
